Data as given in US20150045313A1, “Ectoparasiticidal Methods and Formulations” (Eli Lilly and Company, priority 2009, published 2015).
Like-named read-outs stand apart in the source and are kept apart here.

Legend:
[1] = test system: House Fly; assay: Adult House Fly Assay (AhsF); design: species or system Musca domestica; details: House Fly, 24 h
Description: Adult Stable or House Fly Assay (ASF, AhsF). This assay is conducted essentially as described in White, W. H., S. M. Bauer, X. Zhao et al., Comparison of in vitro and in vivo ectoparasiticide activity of an experimental benzimidazole-carbamate with permethrin and amitraz, J. Med. Entomol. 42, 207-211 (2005); and White, W. H., C. M. McCoy, J. A. Meyer et al., Knockdown and mortality comparisons among spinosad-, imidacloprid-, and methomyl-containing baits against susceptible Musca domestica (Diptera: Muscidae) under laboratory conditions, J. Econ. Entomol. 100, 155-163 (2007).
Test material is formulated in DMSO at 10 mM. Doubling dilutions in like solvent are made to yield 10 testing levels. Materials are diluted in either bovine serum (stable flies) or 5% glucose solution (house flies) to obtain desired exposure concentrations from 200-0.39 μM. Approximately 3 ml of diluted test material is placed into a test tube (n=3 per test level) and a dental wick is used to absorb fluid. One dental wick is placed into a small weigh boat inside of a 100 mm Petri dish. Approximately 10 mixed-sex adult flies are anesthetized using carbon dioxide and counted into each dish. Dishes are incubated at 27° C. and 50-70% relative humidity. Flies recover from anesthesia and feed on compound-soaked dental wicks. After 24 h, live/dead flies are enumerated. Nonlinear regression is used to model dose-mortality relationship and obtain relative potency (LD50) data compared to contemporaneous controls (solvent-only or permethrin).

[2] = test system: house flies
Description: Knockdown and residual efficacy testing and comparison of spinetoram with Elector® for controlling house flies on treated panels.
Test material concentrates of spinetoram (120 g/L suspension concentrate) and spinosad (25 g/L suspension concentrate, Elector) were diluted in distilled water to the desired testing concentrations of either 0.04% (spinetoram only) or 0.08% (both) per label recommended premise spray use rate for controlling house flies with Elector. One square foot panels, obtained from commercial building suppliers, were composed of non-treated plywood, concrete and sheet metal. A second set of both plywood and concrete substrates were primed and painted using exterior grade latex white latex paint. Diluted materials were sprayed onto panels to the point of run-off (approximately 5 seconds per panel). A total of 4 panels were tested per treatment group (n=4). House flies were anesthetized using carbon dioxide and placed inside of plastic containers secured onto panels. There were 4 sub-replicates containers per panel, each container containing 10 mixed-sex adult flies (40 flies per panel). Glucose-saturated dental wicks were secured through a hole in each cup to provide a food and water source for flies. Panels remained upright throughout testing. Fly mortality and moribundity was assessed at post-exposure intervals of 4, 8, 24, 48 and 72 hours immediately following treatment applications and again on a weekly basis for 1 month.

[3] = test system: fleas (C. felis); assay: Third evaluation, speed-of-kill of topical spot-on against fleas on cats; assay type: in vivo; design: flea reduction 12 hours after additional infestation: concentration or dose not given beside the values
Description: Third evaluation of spinetoram as a topical spot-on for control of cat flea infestations. A study was conducted to evaluate the speed-of-kill efficacy of spinetoram applied topically for the control of fleas (C. felis) on cats. Thirty-six cats were evenly allocated into six groups. One group was a no treatment and no vehicle group. On study days −8 and −1, each cat was infested with approximately 100 newly emerged, unfed adult fleas (C. felis), with an approximate split of 50/50 male to female flea. The topical solution used was spinetoram, on a pure basis, 39.6% w/w (210 mg spinetoram/0.5 ml dose), with benzyl alcohol and butylated hydroxytoluene. The treated groups were dosed once on Study Day 0 by application at the base of the skull at skin level, and flea counts were conducted as follows: […]

[4] = test system: Cat Flea; assay: Flea Contact Assay (FCA)
Description: Flea Contact Assay (FCA)/Cat Flea: Test material is formulated in acetone at the desired exposure concentration and doubling dilutions performed to obtain a total of 10 testing levels. Approximately 0.05 ml of formulated material is dispensed into the bottom of a test tube containing a small amount of dog hair. Acetone is allowed to evaporate under a fume hood overnight. Approximately 10 mixed-sex adult cat flea are anesthetized using carbon dioxide and dispensed into each tube. Tubes are sealed using a ventilated plastic cap and incubated at 27° C. and 75-80% relative humidity. […] Nonlinear regression is used to model dose-mortality relationship and obtain relative potency (LD50) data compared to contemporaneous controls (acetone-only or fipronil).

[5] = 4 Week Residual Activity, Sheet Metal, 400 ppm
[6] = 4 Week Residual Activity, Sheet Metal, 800 ppm
[7] = 4 Week Residual Activity, Unpainted Concrete, 400 ppm
[8] = 4 Week Residual Activity, Unpainted Concrete, 800 ppm
[9] = 4 Week Residual Activity, Unpainted Wood, 400 ppm
[10] = 4 Week Residual Activity, Unpainted Wood, 800 ppm
[11] = Initial Activity, Sheet Metal, 400 ppm
[12] = Initial Activity, Sheet Metal, 800 ppm
[13] = Initial Activity, Unpainted Concrete, 400 ppm
[14] = Initial Activity, Unpainted Concrete, 800 ppm
[15] = Initial Activity, Unpainted Wood, 400 ppm
[16] = Initial Activity, Unpainted Wood, 800 ppm

Spinetoram
Spinetoram: Spinosad Potency Ratio [1]: 5.5 | EC50 ([1]; read-out: Potency (24 h EC50 μM)): 2.18 µM | % House Fly Mortality at 4 h [2, 5]: 0% | % House Fly Mortality at 8 h [2, 5]: 40.6% | % House Fly Mortality at 24 h [2, 5]: 91.3% | % House Fly Mortality at 48 h [2, 5]: 97.3% | % House Fly Mortality at 4 h [2, 6]: 0.6% | % House Fly Mortality at 8 h [2, 6]: 26.3% | % House Fly Mortality at 24 h [2, 6]: 80.6% | % House Fly Mortality at 48 h [2, 6]: 96.3% | % House Fly Mortality at 4 h [2, 7]: 4.2% | % House Fly Mortality at 8 h [2, 7]: 80.0% | % House Fly Mortality at 24 h [2, 7]: 100% | % House Fly Mortality at 48 h [2, 7]: 100% | % House Fly Mortality at 4 h [2, 8]: 31.3% | % House Fly Mortality at 8 h [2, 8]: 98.8% | % House Fly Mortality at 24 h [2, 8]: 100% | % House Fly Mortality at 48 h [2, 8]: 100% | % House Fly Mortality at 4 h [2, 9]: 0.6% | % House Fly Mortality at 8 h [2, 9]: 0.6% | % House Fly Mortality at 24 h [2, 9]: 4.7% | % House Fly Mortality at 48 h [2, 9]: 12.1% | % House Fly Mortality at 4 h [2, 10]: 0% | % House Fly Mortality at 8 h [2, 10]: 0% | % House Fly Mortality at 24 h [2, 10]: 22.6% | % House Fly Mortality at 48 h [2, 10]: 61.2% | % House Fly Mortality at 4 h [2, 11]: 19.7% | % House Fly Mortality at 8 h [2, 11]: 91.8% | % House Fly Mortality at 24 h [2, 11]: 100% | % House Fly Mortality at 48 h [2, 11]: 100% | % House Fly Mortality at 4 h [2, 12]: 31.5% | % House Fly Mortality at 8 h [2, 12]: 100% | % House Fly Mortality at 24 h [2, 12]: 100% | % House Fly Mortality at 48 h [2, 12]: 100% | % House Fly Mortality at 4 h [2, 13]: 45.4% | % House Fly Mortality at 8 h [2, 13]: 98.6% | % House Fly Mortality at 24 h [2, 13]: 100% | % House Fly Mortality at 48 h [2, 13]: 100% | % House Fly Mortality at 4 h [2, 14]: 42.5% | % House Fly Mortality at 8 h [2, 14]: 99.2% | % House Fly Mortality at 24 h [2, 14]: 100% | % House Fly Mortality at 48 h [2, 14]: 100% | % House Fly Mortality at 4 h [2, 15]: 1.3% | % House Fly Mortality at 8 h [2, 15]: 5.9% | % House Fly Mortality at 24 h [2, 15]: 83.7% | % House Fly Mortality at 48 h [2, 15]: 98.8% | % House Fly Mortality at 4 h [2, 16]: 0.6% | % House Fly Mortality at 8 h [2, 16]: 39.4% | % House Fly Mortality at 24 h [2, 16]: 100% | % House Fly Mortality at 48 h [2, 16]: 100% | activity compared to Elector ([2]; at one half the application rate, sheet metal and unpainted concrete panels): equivalent or superior to Elector | initial activity compared to Elector ([2]; unpainted plywood): equivalent initial activity | residual activity compared to Elector ([2]; unpainted plywood): marginally inferior residual activity | flea reduction 1 hour after additional infestation ([3]; 28 days after treatment): 80.7% | flea reduction 4 hours after additional infestation ([3]; 28 days after treatment): 91.6% | flea reduction 8 hours after additional infestation ([3]; 28 days after treatment): 98.5% | flea reduction 12 hours after additional infestation ([3]; 28 days after treatment): 100% | flea reduction 24 hours after additional infestation ([3]; 28 days after treatment): 100% | reduction in live flea numbers, four hours after treatment ([3]; cats, 210 mg/0.5 ml dose, 4 hours): 63.2% | efficacy level, eight hours post-dosing ([3]; cats, 210 mg/0.5 ml dose, 8 hours): 94.6% | efficacy, twelve hour time point ([3]; cats, 210 mg/0.5 ml dose, 12 hours): 98.6% | efficacy, twenty-four hour time point ([3]; cats, 210 mg/0.5 ml dose, 24 hours): 100% | flea reduction 4 hours after additional infestation ([3]; seven days after treatment): 100% | flea reduction 8 hours after additional infestation ([3]; seven days after treatment): 100% | flea reduction 12 hours after additional infestation ([3]; seven days after treatment): 100% | flea reduction 24 hours after additional infestation ([3]; seven days after treatment): 100% | fleas killed within one hour of an additional infestation ([3]; seven days after treatment, 1 hour): over 90% | Potency (EC50 ng/cm^2) 24 h ([4]; Cat Flea, 24 h): 1.292 ng/cm^2 | Spinetoram: Spinosad Potency Ratio 24 h ([4]; Cat Flea, 24 h): 2.4 | Potency (EC50 ng/cm^2) 48 h ([4]; Cat Flea, 48 h): 0.6238 ng/cm^2 | Spinetoram: Spinosad Potency Ratio 48 h ([4]; Cat Flea, 48 h): 2.4 | times more potent than spinosad in vitro ([4]; adult cat fleas, time not stated): 2.4 times
